The target of this assay is VPS35 (Mus musculus, UniProt Q9EQH3+Q9QZ88). Kind of assay: Cycloheximide (CHX) chase assay of VPS35 degradation in Neuro2a cells. The assay is classed as cell-based. On the set-up: We incubated Neuro2a cells with compounds 2a–6a (10 µM); endogenous in cells; host or cells: Neuro2a (ATCC CCL-131). The conditions noted are these: 10 µM 24 h pretreatment, CHX up to 8 h. As to the method: We next measured VPS35 degradation rates by a cycloheximide (CHX) chase assay. Neuro2a cells received vehicle or compound 2a (10 µM) for 24 h, then CHX was added and VPS35 levels were measured by WB.
Cycloheximide (CHX) assay was done on Neuro2a cells seeded in 6-well plates and incubated with compound 2a (10 µM) or vehicle for 24 h. We next added CHX (Sigma–Aldrich) at 10 µg/mL and cells were collected at 0, 2, 4, and 8 h for the time-course assay of VPS35 levels by WB.
Compound 2a stabilizes VPS35 levels in Neuro2a cells
A cycloheximide (CHX) chase assay was performed to determine the degradation rate of VPS35 in Neuro2a cells (3x10^5 cells/well). Cells were treated with vehicle or 2a (10 µM) for 24 h, and then chased with CHX (10 µg/mL) for 2, 4 and 8h.
WBs for VPS35 and β-Actin levels. Quantifications of normalized VPS35 levels (means normalized ratios ± SEM versus the time 0) are shown inpanel b (vehicle: n=10 independent wells, 2a: n=8 independent wells obtained from 3 independent experiments; control vs. 2a at 8 hours: p=0.009). c, quantitative real time PCR for Vps35, Vps26 and Vps29 mRNA (Vps35: controls n=8 independent wells; 2a: n=9 independent wells; Vps26 and Vps29: n=9 independent wells/group); data were collected from 3 independent experiments. […]

For `NC(N)=N/N=C/c1cccc(/C=N/N=C(N)N)c1` [compound 2a, phenyl-1,3-bis-guanylhydrazone], the “VPS35 degradation in CHX chase” value is “protected VPS35 from degradation”.
